Laboratory results from US20150105252A1, “SUBSTITUTED PYRAZOLES AS HERBICIDES” (E I DU PONT DE NEMOURS AND COMPANY, priority 2013, published 2015).

Legend:
wheat = assay: Test C preemergence; type: in vivo, Triticum aestivum; settings: for Wheat plant response rating / Plant response rating, Wheat: preemergence; for Plant response rating, Wheat: scale 0 to 100, 0 = no effect, 100 = complete control
Source text: (§1) Seeds of plant species selected from blackgrass (Alopecurus myosuroides), ryegrass, Italian (Italian ryegrass, Lolium multiflorum), wheat (winter wheat, Triticum aestivum), galium (catchweed bedstraw, Galium aparine), corn (Zea mays), crabgrass, large (large crabgrass, Digitaria sanguinalis), foxtail, giant (giant foxtail, Setaria faberii), johnsongrass (Sorghum halepense), lambsquarters (Chenopodium album), morningglory (Ipomoea coccinea), nutsedge, yellow (yellow nutsedge, Cyperus esculentus), pigweed (redroot pigweed, Amaranthus retroflexus), ragweed (common ragweed, Ambrosia elation), soybean (Glycine max), barnyardgrass (Echinochloa crus-galli), oilseed rape (Brassica napus), waterhemp (common waterhemp, Amaranthus rudis), oat, wild (wild oat, Avena fatua), kochia (Kochia scoparia), Surinam grass (Brachiaria decumbens), foxtail, green (green foxtail, Setaria viridis), goosegrass (Eleusine indica), bromegrass, downy (downy bromegrass, Bromus tectorum), nightshade (eastern black nightshade, Solanum ptycanthum), cocklebur (common cocklebur, Xanthium strumarium), cupgrass, woolly (woolly cupgrass, Eriochloa villosa), bermudagrass (Cynodon dactylon), sunflower, (common oilseed sunflower, Helianthus annuus), Russian thistle (Salsola kali), and velvetleaf (Abutilon theophrasti) were planted into a blend of loam soil and sand and treated preemergence with test chemicals formulated in a non-phytotoxic solvent mixture which included a surfactant.
(§2) At the same time, plants selected from these crop and weed species and also chickweed (common chickweed, Stellaria media), canarygrass (littleseed canarygrass, Phalaris minor), and deadnettle (henbit deadnettle, Lamium amplexicaule), were planted in pots containing Redi-Earth® planting medium (Scotts Company, 14111 Scottslawn Road, Marysville, Ohio 43041) comprising spaghnum peat moss, vermiculite, wetting agent and starter nutrients and treated with postemergence applications of test chemicals formulated in the same manner. Plants ranged in height from 2 to 18 cm (1- to 4-leaf stage) for postemergence treatments. Treated plants and controls were maintained in a greenhouse for 13 to 15 days, after which time all species were compared to controls and visually evaluated. Plant response ratings, summarized in Table C, are based on a scale of 0 to 100 where 0 is no effect and 100 is complete control. A dash (-) response means no test result.

galium = assay: Test C preemergence; type: in vivo, Galium aparine; settings: for Galium plant response rating / Plant response rating, Galium: preemergence; for Plant response rating, Galium: scale 0 to 100, 0 = no effect, 100 = complete control
Source text: as §1, §2

johnsongrass = assay: Test C preemergence; type: in vivo, Sorghum halepense; settings: for Johnsongrass plant response rating / Plant response rating, Johnsongrass: preemergence; for Plant response rating, Johnsongrass: scale 0 to 100, 0 = no effect, 100 = complete control
Source text: as §1, §2

lambsquarters = assay: Test C preemergence; type: in vivo, Chenopodium album; settings: for Lambsquarters plant response rating: preemergence
Source text: as §1, §2

soybean = assay: Test C preemergence; type: in vivo, Glycine max; settings: for Soybean plant response rating / Plant response rating, Soybean: preemergence; for Plant response rating, Soybean: scale 0 to 100, 0 = no effect, 100 = complete control
Source text: as §1, §2

barnyardgrass = assay: Test C preemergence; type: in vivo, Echinochloa crus-galli; settings: for Barnyardgrass plant response rating / Plant response rating, Barnyardgrass: preemergence; for Plant response rating, Barnyardgrass: scale 0 to 100, 0 = no effect, 100 = complete control
Source text: as §1, §2

oilseed rape = assay: Test C preemergence; type: in vivo, Brassica napus; settings: for Oilseed Rape plant response rating / Plant response rating, Oilseed Rape: preemergence; for Plant response rating, Oilseed Rape: scale 0 to 100, 0 = no effect, 100 = complete control
Source text: as §1, §2

velvetleaf = assay: Test C preemergence; type: in vivo, Abutilon theophrasti; settings: for Velvetleaf plant response rating / Plant response rating, Velvetleaf: preemergence; for Plant response rating, Velvetleaf: scale 0 to 100, 0 = no effect, 100 = complete control
Source text: as §1, §2

crabgrass, large = assay: Test A postemergence; type: in vivo, Digitaria sanguinalis
Summary of the method: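 Visual injury ratings, 0 = no effect to 100 = complete control, taken about 10 days after treatment against untreated controls. Test chemicals, in a non-phytotoxic surfactant-containing solvent, were sprayed onto soil preemergence or onto one- to two-leaf plants (2–10 cm) postemergence, in loam–sand soil under greenhouse conditions.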

[1] = 31 g ai/ha, visual rating, scale 0 to 100 (0 no effect, 100 complete control), 13 to 15 days
[2] = 62 g ai/ha, scale 0 to 100 (0 no effect, 100 complete control), 13 to 15 days
[3] = 125 g ai/ha, scale 0 to 100, 0 is no effect, 100 is complete control
[4] = Postemergence, 500 g ai/ha, 0 to 100 scale (0 no effect, 100 complete control)
[5] = postemergence, 125 g ai/ha, about 10 days, visual rating on 0 to 100 scale (0 no effect, 100 complete control)
[6] = 250 g ai/ha, scale 0 to 100, 0 is no effect, 100 is complete control

With `CCONC(=O)c1cc(CC)n(Cc2cc(C(F)(F)F)no2)n1` [Compound 125] the “Plant response rating (scale of 0 to 100), Wheat” value (wheat; Preemergence, 250 g ai/ha) was 50, the “Wheat plant response rating” value (wheat; [1]) was 0 and the “Wheat plant response rating” value (wheat; [2]) was 0. The “Wheat plant response rating” value (wheat; [3]) was 5, the “Plant response rating (scale of 0 to 100), Galium” value (galium; Preemergence, 250 g ai/ha) was 90 and the “Galium plant response rating” value (galium; [1]) was 80. The “Galium plant response rating” value (galium; [2]) was 85, the “Galium plant response rating” value (galium; [3]) was 100 and the “Plant response rating (scale of 0 to 100), Johnsongrass” value (johnsongrass; Preemergence, 250 g ai/ha) was 10. For the same compound, the “Johnsongrass plant response rating” value (johnsongrass; [1]) was 0, the “Johnsongrass plant response rating” value (johnsongrass; [2]) was 0 and the “Johnsongrass plant response rating” value (johnsongrass; [3]) was 5. For the same compound, the “Plant response rating (scale of 0 to 100), Lambsquarters” value (lambsquarters; Preemergence, 250 g ai/ha) was 100, the “Lambsquarters plant response rating” value (lambsquarters; [1]) was 15 and the “Lambsquarters plant response rating” value (lambsquarters; [2]) was 35. For the same compound, the “Lambsquarters plant response rating” value (lambsquarters; [3]) was 75, the “Plant response rating (scale of 0 to 100), Soybean” value (soybean; Preemergence, 250 g ai/ha) was 15 and the “Soybean plant response rating” value (soybean; [1]) was 5. The “Soybean plant response rating” value (soybean; [2]) was 5, the “Soybean plant response rating” value (soybean; [3]) was 10 and the “Plant response rating (scale of 0 to 100), Barnyardgrass” value (barnyardgrass; Preemergence, 250 g ai/ha) was 100. The “Barnyardgrass plant response rating” value (barnyardgrass; 31 g ai/ha, scale 0 to 100 (0 no effect, 100 complete control), 13 to 15 days) was 5, the “Barnyardgrass plant response rating” value (barnyardgrass; [2]) was 50 and the “Barnyardgrass plant response rating” value (barnyardgrass; [3]) was 80. The “Plant response rating (scale of 0 to 100), Oilseed Rape” value (oilseed rape; Preemergence, 250 g ai/ha) was 95, the “Oilseed Rape plant response rating” value (oilseed rape; [1]) was 30 and the “Oilseed Rape plant response rating” value (oilseed rape; [2]) was 60. For the same compound, the “Oilseed Rape plant response rating” value (oilseed rape; [3]) was 95, the “Plant response rating (scale of 0 to 100), Velvetleaf” value (velvetleaf; Preemergence, 250 g ai/ha) was 40 and the “Velvetleaf plant response rating” value (velvetleaf; [1]) was 20. The “Velvetleaf plant response rating” value (velvetleaf; [2]) was 20 and the “Velvetleaf plant response rating” value (velvetleaf; [3]) was 30.
For `O=C(NCC(F)(F)F)c1cc(CCCl)n(Cc2ccnc(C(F)(F)F)c2)n1` [Compound 143], the “Crabgrass, Large plant response rating” value (crabgrass, large; [4]) was 90, the “Crabgrass, Large plant response rating” value (crabgrass, large; [5]) was 90 and the “Wheat plant response rating” value (wheat; [1]) was 40. For the same compound, the “Wheat plant response rating” value (wheat; [2]) was 60, the “Plant response rating, Wheat” value (wheat; 125 g ai/ha, 13 to 15 days) was 80 and the “Wheat plant response rating” value (wheat; [6]) was 85. For the same compound, the “Galium plant response rating” value (galium; [1]) was 90, the “Galium plant response rating” value (galium; [2]) was 100 and the “Plant response rating, Galium” value (galium; 125 g ai/ha, 13 to 15 days) was 95. The “Galium plant response rating” value (galium; [6]) was 100, the “Johnsongrass plant response rating” value (johnsongrass; [1]) was 70 and the “Johnsongrass plant response rating” value (johnsongrass; [2]) was 85. For the same compound, the “Plant response rating, Johnsongrass” value (johnsongrass; 125 g ai/ha, 13 to 15 days) was 95, the “Johnsongrass plant response rating” value (johnsongrass; [6]) was 95 and the “Soybean plant response rating” value (soybean; [1]) was 35. The “Soybean plant response rating” value (soybean; [2]) was 85, the “Plant response rating, Soybean” value (soybean; 125 g ai/ha, 13 to 15 days) was 98 and the “Soybean plant response rating” value (soybean; [6]) was 98. The “Barnyardgrass plant response rating” value (barnyardgrass; [1]) was 75, the “Barnyardgrass plant response rating” value (barnyardgrass; [2]) was 100 and the “Plant response rating, Barnyardgrass” value (barnyardgrass; 125 g ai/ha, 13 to 15 days) was 100. For the same compound, the “Barnyardgrass plant response rating” value (barnyardgrass; [6]) was 100, the “Oilseed Rape plant response rating” value (oilseed rape; [1]) was 100 and the “Oilseed Rape plant response rating” value (oilseed rape; [2]) was 100. The “Plant response rating, Oilseed Rape” value (oilseed rape; 125 g ai/ha, 13 to 15 days) was 95, the “Oilseed Rape plant response rating” value (oilseed rape; [6]) was 100 and the “Velvetleaf plant response rating” value (velvetleaf; [1]) was 100. The “Velvetleaf plant response rating” value (velvetleaf; [2]) was 98, the “Plant response rating, Velvetleaf” value (velvetleaf; 125 g ai/ha, 13 to 15 days) was 100 and the “Velvetleaf plant response rating” value (velvetleaf; [6]) was 100.
With `CCCNC(=O)c1cc(CCCl)n(Cc2ccnc(C(F)(F)F)c2)n1` [Compound 145] the “Crabgrass, Large plant response rating” value (crabgrass, large; [4]) was 90, the “Crabgrass, Large plant response rating” value (crabgrass, large; [5]) was 90 and the “Wheat plant response rating” value (wheat; [1]) was 5. The “Wheat plant response rating” value (wheat; [2]) was 40, the “Plant response rating, Wheat” value (wheat; 125 g ai/ha, 13 to 15 days) was 50 and the “Wheat plant response rating” value (wheat; [6]) was 90. The “Galium plant response rating” value (galium; [1]) was 90, the “Galium plant response rating” value (galium; [2]) was 95 and the “Plant response rating, Galium” value (galium; 125 g ai/ha, 13 to 15 days) was 95. The “Galium plant response rating” value (galium; [6]) was 100, the “Johnsongrass plant response rating” value (johnsongrass; [1]) was 55 and the “Plant response rating, Johnsongrass” value (johnsongrass; 125 g ai/ha, 13 to 15 days) was 98. The “Johnsongrass plant response rating” value (johnsongrass; [6]) was 98, the “Soybean plant response rating” value (soybean; [1]) was 20 and the “Soybean plant response rating” value (soybean; [2]) was 70. The “Plant response rating, Soybean” value (soybean; 125 g ai/ha, 13 to 15 days) was 85, the “Soybean plant response rating” value (soybean; [6]) was 95 and the “Barnyardgrass plant response rating” value (barnyardgrass; [1]) was 95. The “Plant response rating, Barnyardgrass” value (barnyardgrass; 125 g ai/ha, 13 to 15 days) was 100, the “Barnyardgrass plant response rating” value (barnyardgrass; [6]) was 100 and the “Oilseed Rape plant response rating” value (oilseed rape; [1]) was 60. For the same compound, the “Oilseed Rape plant response rating” value (oilseed rape; [2]) was 98, the “Plant response rating, Oilseed Rape” value (oilseed rape; 125 g ai/ha, 13 to 15 days) was 100 and the “Oilseed Rape plant response rating” value (oilseed rape; [6]) was 98. For the same compound, the “Velvetleaf plant response rating” value (velvetleaf; [1]) was 90, the “Velvetleaf plant response rating” value (velvetleaf; [2]) was 100 and the “Plant response rating, Velvetleaf” value (velvetleaf; 125 g ai/ha, 13 to 15 days) was 100. For the same compound, the “Velvetleaf plant response rating” value (velvetleaf; [6]) was 100.
In the case of `CCONC(=O)c1cc(OCC)n(Cc2ccnc(C(F)(F)F)c2)n1` [Compound 195], the “Crabgrass, Large plant response rating” value (crabgrass, large; [4]) is reported as 100, the “Crabgrass, Large plant response rating” value (crabgrass, large; [5]) is reported as 80 and the “Wheat plant response rating” value (wheat; [1]) is reported as 0. For the same compound, the “Wheat plant response rating” value (wheat; [2]) was 45, the “Plant response rating, Wheat” value (wheat; 125 g ai/ha, 13 to 15 days) was 85 and the “Wheat plant response rating” value (wheat; [6]) was 90. For the same compound, the “Galium plant response rating” value (galium; [1]) was 0, the “Galium plant response rating” value (galium; [2]) was 85 and the “Plant response rating, Galium” value (galium; 125 g ai/ha, 13 to 15 days) was 95. For the same compound, the “Galium plant response rating” value (galium; [6]) was 100, the “Johnsongrass plant response rating” value (johnsongrass; [1]) was 5 and the “Johnsongrass plant response rating” value (johnsongrass; [2]) was 30. The “Plant response rating, Johnsongrass” value (johnsongrass; 125 g ai/ha, 13 to 15 days) was 75, the “Johnsongrass plant response rating” value (johnsongrass; [6]) was 85 and the “Soybean plant response rating” value (soybean; [1]) was 5. The “Soybean plant response rating” value (soybean; [2]) was 5, the “Plant response rating, Soybean” value (soybean; 125 g ai/ha, 13 to 15 days) was 25 and the “Soybean plant response rating” value (soybean; [6]) was 60. For the same compound, the “Barnyardgrass plant response rating” value (barnyardgrass; [1]) was 60, the “Barnyardgrass plant response rating” value (barnyardgrass; [2]) was 85 and the “Plant response rating, Barnyardgrass” value (barnyardgrass; 125 g ai/ha, 13 to 15 days) was 100. For the same compound, the “Barnyardgrass plant response rating” value (barnyardgrass; [6]) was 100, the “Oilseed Rape plant response rating” value (oilseed rape; [1]) was 30 and the “Oilseed Rape plant response rating” value (oilseed rape; [2]) was 85. The “Plant response rating, Oilseed Rape” value (oilseed rape; 125 g ai/ha, 13 to 15 days) was 95, the “Oilseed Rape plant response rating” value (oilseed rape; [6]) was 98 and the “Velvetleaf plant response rating” value (velvetleaf; [1]) was 15. The “Velvetleaf plant response rating” value (velvetleaf; [2]) was 60, the “Plant response rating, Velvetleaf” value (velvetleaf; 125 g ai/ha, 13 to 15 days) was 100 and the “Velvetleaf plant response rating” value (velvetleaf; [6]) was 100.
